The record followed here is patent US20240254143A1, “OREXIN RECEPTOR AGONISTS AND USES THEREOF” (JAZZ PHARMACEUTICALS IRELAND LIMITED, priority 2021, published 2024).

For this assay, the target named is T1, human recombinant OX2 (hOX2) receptor (Homo sapiens, UniProt O43614).
T1 construct: host or cells: CHO cells
T1 sequence (O43614 1-444): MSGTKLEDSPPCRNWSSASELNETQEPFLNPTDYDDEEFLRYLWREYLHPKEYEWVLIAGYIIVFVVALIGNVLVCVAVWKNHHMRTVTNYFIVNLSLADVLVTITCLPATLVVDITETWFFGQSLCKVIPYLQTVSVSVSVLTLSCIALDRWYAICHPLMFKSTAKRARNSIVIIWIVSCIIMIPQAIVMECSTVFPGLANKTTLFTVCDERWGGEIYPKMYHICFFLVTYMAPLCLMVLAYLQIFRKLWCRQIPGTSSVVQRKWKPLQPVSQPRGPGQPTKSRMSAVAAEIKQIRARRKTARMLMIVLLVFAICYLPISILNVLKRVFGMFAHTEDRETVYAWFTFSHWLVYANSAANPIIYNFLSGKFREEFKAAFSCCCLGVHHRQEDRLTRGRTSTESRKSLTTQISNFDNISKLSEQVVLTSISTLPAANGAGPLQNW
The assay can be described thus: IP-1 accumulation assay (IP-One HTRF) in hOX2-CHO cells. Type of assay: cell-based. The following applies: 60 min at 37° C., mean of at least two independent experiments, read-out: EC50_OX2R Category. In short, it runs like this: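 hOX2 receptor expressed in CHO cells, seeded in suspension in HBSS with 20 mM HEPES pH 7.4, LiCl and 0.1% BSA; compounds tested as 11-point CRC (0.5% DMSO final), 60 min at 37 °C. IP-1 read by HTRF (665/615 ratio) after 60 min lysis at room temperature; response as % of maximal OX-A response, EC50 by four-parameter logistic fit, mean of ≥2 experiments in duplicate.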
For orientation: In TR-FRET formats the signal depends on donor and acceptor labels being close together.
In the case of `COC(=O)N1[C@H](C)C[C@@]2(COCC(=O)N2)[C@@H]1Cc1cccc(-c2cc(F)cc(F)c2)c1F` [Example 85, Methyl (1S,3R,5S)-3-methyl-7-oxo-1-({2,3′,5′-trifluoro-[1,1′-biphenyl]-3-yl}methyl)-9-oxa-2,6-diazaspiro[4.5]decane-2-carboxylate], the EC50 was more than 10 µM.

Take `C[C@@H]1C[C@@]2(COCC(=O)N2)[C@H](Cc2cccc(-c3cc(F)cc(F)c3)c2F)N1C(=O)C1CC(F)(F)C1` [Example 86, (1S,3R,5S)-2-(3,3-difluorocyclobutanecarbonyl)-3-methyl-1-({2,3′,5′-trifluoro-[1,1′-biphenyl]-3-yl}methyl)-9-oxa-2,6-diazaspiro[4.5]decan-7-one]: the EC50 lay within 0.1 to 1 µM.

Consider `CCN(C)C(=O)N1[C@H](C)C[C@@]2(COCC(=O)N2)[C@@H]1Cc1cccc(-c2cc(F)cc(F)c2)c1F` [Example 87, (1S,3R,5S)-N-ethyl-N,3-dimethyl-7-oxo-1-({2,3′,5′-trifluoro-[1,1′-biphenyl]-3-yl}methyl)-9-oxa-2,6-diazaspiro[4.5]decane-2-carboxamide], for which the EC50 is 0.1 to 1 µM.

`COCC(=O)N1[C@H](C)C[C@@]2(COCC(=O)N2)[C@@H]1Cc1cccc(-c2cc(F)cc(F)c2)c1F` [Example 88, (1S,3R,5S)-2-(2-methoxyacetyl)-3-methyl-1-({2,3′,5′-trifluoro-[1,1′-biphenyl]-3-yl}methyl)-9-oxa-2,6-diazaspiro[4.5]decan-7-one]: the EC50 is 1 to 10 µM.

For the compound `C[C@@H]1C[C@@]2(COCC(=O)N2)[C@H](Cc2cccc(-c3cc(F)cc(F)c3)c2F)N1C(=O)[C@H]1CCO1` [Example 89, (1S,3R,5S)-3-methyl-2-[(2R)-oxetane-2-carbonyl]-1-({2,3′,5′-trifluoro-[1,1′-biphenyl]-3-yl}methyl)-9-oxa-2,6-diazaspiro[4.5]decan-7-one], the EC50 was 0.1 to 1 µM.

Turning to `C[C@@H]1C[C@@]2(COCC(=O)N2)[C@H](Cc2cccc(-c3cc(F)cc(F)c3)c2F)N1S(C)(=O)=O` [Example 93, (1S,3R,5S)-2-methanesulfonyl-3-methyl-1-({2,3′,5′-trifluoro-[1,1′-biphenyl]-3-yl}methyl)-9-oxa-2,6-diazaspiro[4.5]decan-7-one], the EC50 was more than 10 µM.
